molecular target: IDO (Homo sapiens, UniProt P14902); assay: LLE_IDO_ABS_DR (IDO assay)
Sequence (P14902 whole entry): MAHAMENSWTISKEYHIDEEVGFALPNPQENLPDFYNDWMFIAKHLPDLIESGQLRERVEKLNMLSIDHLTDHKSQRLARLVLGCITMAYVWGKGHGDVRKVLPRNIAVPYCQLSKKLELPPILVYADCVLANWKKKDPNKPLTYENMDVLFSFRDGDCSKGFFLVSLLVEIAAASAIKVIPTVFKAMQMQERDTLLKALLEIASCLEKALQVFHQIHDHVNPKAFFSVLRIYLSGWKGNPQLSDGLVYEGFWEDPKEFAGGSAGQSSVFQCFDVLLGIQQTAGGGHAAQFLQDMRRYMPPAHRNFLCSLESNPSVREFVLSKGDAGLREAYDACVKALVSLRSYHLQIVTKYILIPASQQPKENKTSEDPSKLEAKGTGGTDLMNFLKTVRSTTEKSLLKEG

Point of comparison: `Cc1ccc(NC(=O)Nc2cc(-c3ccccc3-c3nnn[nH]3)ccc2N2CCC(c3ccc(F)cc3)C2)cc1` (centres unmarked) [Example 386], IC50 40 nM. Against it:
- CCCN(c1ccc(-c2ccccc2-c2nnn[nH]2)cc1NC(=O)Nc1ccc(C)cc1)C1CCCC1 [Example 169, 1-(4-(cyclopentyl(propyl)amino)-2′-(1H-tetrazol-5-yl)biphenyl-3-yl)-3-p-tolylurea] — 8.8-fold lower, 4.55 nM
- CCCN(c1ccc(-c2ccccc2-c2nnn[nH]2)cc1NC(=O)Nc1ccccc1F)C1CCCC1 [Example 170, 1-(4-(cyclopentyl(propyl)amino)-2′-(1H-tetrazol-5-yl)biphenyl-3-yl)-3-(2-fluorophenyl)urea] — 7-fold lower, 5.68 nM
- Cc1ccc(NC(=O)Nc2cc(-c3cc(F)ccc3C(=O)O)ccc2N(CCC(C)C(F)(F)F)CC(C)C)cc1 (centres unmarked) [Example 203, 5-fluoro-4′-(isobutyl (4,4,4-trifluoro-3-methylbutyl)amino)-3′-(3-(p-tolyl)ureido)-[1,1′-biphenyl]-2-carboxylic acid] — 5.5-fold lower, 7.31 nM
- Cc1ccc(NC(=O)Nc2cc(-c3ccccc3-c3nnn[nH]3)ccc2N(CC(C)C)CC2CC2)cc1 [Example 92, 1-(4-((cyclopropylmethyl) (isobutyl)amino)-2′-(1H-tetrazol-5-yl)biphenyl-3-yl)-3-p-tolylurea] — 2-fold lower, 20 nM
- [2H]C([2H])(C(C)C)N(c1ccc(-c2cc(F)ccc2C(=O)O)cc1NC(=O)Nc1ccc(C)cc1)C1CCCCC1 [Example 31, 4′-(Cyclohexyl(1,1-dideutero-2-methylpropyl)amino)-5-fluoro-3′-(3-p-tolylureido)biphenyl-2-carboxylic acid] — 7.7-fold lower, 5.18 nM
- CC(C)CN(c1ccc(-c2ccccc2-c2nnn[nH]2)cc1NC(=O)Nc1ccc(F)cc1F)C(C)C [Example 156, 1-(2,4-difluorophenyl)-3-(4-(isobutyl (isopropyl)amino)-2′-(1H-tetrazol-5-yl)biphenyl-3-yl)urea] — 5.4-fold lower, 7.45 nM
- Cc1ccc(NC(=O)Nc2cc(-c3ccccc3C(=O)O)ccc2N(CC(C)C)C2CCCC2)cc1 [Example 172, 4′-(cyclopentyl(isobutyl)amino)-3′-(3-p-tolylureido)biphenyl-2-carboxylic acid] — 4-fold lower, 10 nM
- CCN(CCOC)c1ccc(-c2ccccc2-c2nnn[nH]2)cc1NC(=O)Nc1ccc(C)cc1 [Example 73, 1-(4-(ethyl(2-methoxyethyl)amino)-2′-(1H-tetrazol-5-yl)biphenyl-3-yl)-3-p-tolylurea] — 3.8-fold higher, 150 nM
- COC(=O)c1cnc(NC(=O)Nc2cc(-c3ccccc3-c3nnn[nH]3)ccc2N(CC(C)C)CC(C)C)s1 [Example 144, methyl 2-(3-(4-(diisobutylamino)-2′-(1H-tetrazol-5-yl)biphenyl-3-yl)ureido)thiazole-5-carboxylate] — 4-fold lower, 10 nM
- CC(C)CN(c1ccc(-c2ccc(Cl)cc2C(=O)O)cc1NC(=O)Nc1ccccc1F)C1CCCCC1 [Example 123, 4-chloro-4′-(cyclohexyl(isobutyl)amino)-3′-(3-(2-fluorophenyl)ureido) biphenyl-2-carboxylic acid] — 2-fold lower, 20 nM
- CC(C)CN(c1cc(F)c(-c2cc(F)ccc2C(=O)O)cc1NC(=O)Nc1ccccc1F)C1CCCCC1 [Example 229, 4′-(cyclohexyl(isobutyl)ami-no)-2′,5-difluoro-5′-(3-(2-fluorophenyl)ureido) biphenyl-2-carboxylic acid] — 16-fold lower, 2.56 nM
- Cc1ccc(NC(=O)Nc2cc(-c3c(C(=O)O)cccc3N(C)C)ccc2N(CC(C)C)CC(C)C)cc1 [Example 101, 4′-(diisobutylamino)-6-(dimethylamino)-3′-(3-p-tolylureido) biphenyl-2-carboxylic acid] — 4-fold lower, 10 nM
- CC(C)CN(CC(C)C)c1ccc(-c2ccccc2-c2nnn[nH]2)cc1NC(=O)Nc1nncs1 [Example 145, 1-(4-(diisobutylamino)-2′-(1H-tetrazol-5-yl)biphenyl-3-yl)-3-(1,3,4-thiadiazol-2-yl)urea] — 2-fold higher, 80 nM
- C#CCOc1ccc(NC(=O)Nc2cc(-c3ccccc3-c3nnn[nH]3)ccc2N(CC(C)C)CC(C)C)cc1 [Example 244] — 4.3-fold lower, 9.3 nM
- CCCCN(CCCC)c1ccc(-c2ccccc2-c2nnn[nH]2)cc1NC(=O)Nc1ccc(C)cc1 [Example 88, 1-(4-(dibutylamino)-2′-(1H-tetrazol-5-yl)biphenyl-3-yl)-3-p-tolylurea] — 4.1-fold lower, 9.82 nM
- CC(C)CN(c1ccc(-c2ccccc2-c2nnn[nH]2)cc1NC(=O)Nc1ccccc1F)C1CCCC1 [Example 175, 1-(4-(cyclopentyl (isobutyl)amino)-2′-(1H-tetrazol-5-yl)biphenyl-3-yl)-3-(2-fluorophenyl)urea] — 9.2-fold lower, 4.36 nM
- Cc1ccc(NC(=O)Nc2cc(-c3ccccc3C(=O)O)ccc2N(CC(C)C)CC2CCC2)cc1 [Example 100, 4′-((cyclobutylmethyl) (isobutyl)amino)-3′-(3-p-tolylureido)biphenyl-2-carboxylic acid] — 2.2-fold higher, 90 nM
- CC(C)CN(CC(C)C)c1ccc(-c2ccccc2-c2nnn[nH]2)cc1NC(=O)Nc1ccc(F)c(C#N)c1 [Example 250, 1-(3-Cyano-4-fluorophenyl-3-(4-diisobutylamino)-2′-(1H-tetrazol-5-yl)-[1,1′-biphenyl]-3-yl)urea] — 23-fold higher, 930 nM
- O=C(Nc1ccc(OC(F)(F)F)cc1)Nc1cc(-c2ccccc2-c2nnn[nH]2)ccc1N(CCC(F)(F)F)Cc1ccc(F)cc1C(F)(F)F [Example 339, 1-(4-((4-fluoro-2-(trifluoromethyl)benzyl)(3,3,3-trifluoropropyl)amino)-2′-(1H-tetrazol-5-yl)-[1,1′-biphenyl]-3-yl)-3-(4-(trifluoromethoxy)phenyl)urea] — 4-fold higher, 160 nM
- C#Cc1ccc(NC(=O)Nc2cc(-c3ccccc3-c3nnn[nH]3)ccc2N(CC(C)C)CC(C)C)cc1 [Example 278, 1-(4-(diisobutylamino)-2′-(1H-tetrazol-5-yl)-[1,1′-biphenyl]-3-yl)-3-(4-ethynylphenyl)urea] — 31-fold lower, 1.31 nM
- O=C(Nc1ccc(C2CC2)cc1)Nc1cc(-c2ccccc2-c2nnn[nH]2)ccc1N(CCC(F)(F)F)Cc1ccc(F)cc1 [Example 350, 1-(4-cyclopropylphenyl)-3-(4-((4-fluorobenzyl)(3,3,3-trifluoropropyl)amino)-2′-(1H-tetrazol-5-yl)-[1,1′-biphenyl]-3-yl)urea] — 6.2-fold higher, 250 nM
- O=C(Nc1ccc(F)cc1F)Nc1cc(-c2ccccc2-c2nnn[nH]2)ccc1N(CCC(F)(F)F)Cc1ccc(Cl)cc1Cl [Example 336, 1-(4-((2,4-dichlorobenzyl)(3,3,3-trifluoropropyl)amino)-2′-(1H-tetrazol-5-yl)-[1,1′-biphenyl]-3-yl)-3-(2,4-difluorophenyl) urea] — 8.5-fold higher, 340 nM
- CC(C)CN(CC(C)C)c1ccc(-c2ccccc2-c2nnn[nH]2)cc1NC(=O)Nc1cccc(F)c1O [Example 275, 1-(4-(diisobutylamino)-2′-(1H-tetrazol-5-yl)-[1,1′-biphenyl]-3-yl)-3-(3-fluoro-2-hydroxyphenyl)urea] — 12-fold higher, 500 nM
- Cc1ccc(NC(=O)Nc2cc(-c3cc(F)ccc3C(=O)O)ccc2N(CCC(F)(F)F)Cc2ccc(Cl)cc2)cc1 [Example 15, 4′-((4-Chlorobenzyl)(3,3,3-trifluoropropyl)amino)-5-fluoro-3′-(3-(p-tolyl)ureido)-[1,1′-biphenyl]-2-carboxylic acid] — 2.2-fold higher, 90 nM
- Cc1ccc(NC(=O)Nc2cc(-c3ccccc3-c3nnn[nH]3)cc(F)c2N(CC(C)C)CC(C)C)cc1 [Example 5, 1-(4-(Diisobutylamino)-5-fluoro-2′-(1H-tetrazol-5-yl)biphenyl-3-yl)-3-p-tolylurea] — 9.9-fold lower, 4.05 nM
